# Test results: ChEMBL document CHEMBL4725279, “Design and synthesis of peptide-based chimeric molecules to induce degradation of the estrogen and androgen receptors” (Bioorg Med Chem, 2020)
# Columns and labels:
# Format in all cases: cell-based
# [1] = target: T1, Baculoviral IAP repeat-containing protein 2/E3 ubiquitin-protein ligase XIAP/Aryl hydrocarbon receptor (Homo sapiens, UniProt P35869+P98170+Q13490); test: SNIPER activity at IAP/AhR in human MCF7 cells assessed as induction of AhR protein degradation by measuring AhR protein level at 5 uM incubated for 8 hrs by western blot analysis relative to lamin B; details: mcf7, 8 h
# [2] = target: T2, IAP/Androgen receptor (Homo sapiens) (UniProt P10275+P98170+Q13490); test: SNIPER activity at IAP/AR in human MCF7 cells assessed as induction of AR protein degradation by measuring AR protein level at 20 uM incubated for 8 hrs in presence of proteasome inhibitor, MG132 by western blot analysis relative to lamin B
# [3] = target: T3, IAP-Estrogen receptor (Homo sapiens) (UniProt P03372+P98170+Q13490); test: SNIPER activity at IAP/ERalpha in human MCF7 cells assessed as induction of ERalpha protein degradation by measuring ERalpha protein level at 20 uM incubated for 24 hrs by western blot analysis relative to lamin B
# [4] = target: T3, IAP-Estrogen receptor (Homo sapiens); test: SNIPER activity at IAP/ERalpha in human MCF7 cells assessed as induction of ERalpha protein degradation by measuring ERalpha protein level at 5 uM incubated for 24 hrs by western blot analysis relative to lamin B
# [5] = target: T2, IAP/Androgen receptor (Homo sapiens); test: SNIPER activity at IAP/AR in human MCF7 cells assessed as induction of AR protein degradation by measuring AR protein level at 10 uM incubated for 8 hrs by western blot analysis relative to lamin B
# [6] = target: T1, Baculoviral IAP repeat-containing protein 2/E3 ubiquitin-protein ligase XIAP/Aryl hydrocarbon receptor; test: SNIPER activity at IAP/AhR in human MCF7 cells assessed as induction of AhR protein degradation by measuring AhR protein level at 5 uM incubated for 24 hrs by western blot analysis relative to lamin B; details: mcf7, 24 h
# [7] = target: T1, Baculoviral IAP repeat-containing protein 2/E3 ubiquitin-protein ligase XIAP/Aryl hydrocarbon receptor; test: SNIPER activity at IAP/AhR in human MCF7 cells assessed as induction of AhR protein degradation by measuring AhR protein level at 20 uM incubated for 24 hrs by western blot analysis relative to lamin B; details: mcf7, 24 h
# [8] = target: T2, IAP/Androgen receptor (Homo sapiens); test: SNIPER activity at IAP/AR in human MCF7 cells assessed as induction of AR protein degradation by measuring AR protein level at 20 uM incubated for 24 hrs by western blot analysis relative to lamin B
# [9] = target: T3, IAP-Estrogen receptor (Homo sapiens); test: SNIPER activity at IAP/ERalpha in human MCF7 cells assessed as induction of ERalpha protein degradation by measuring ERalpha protein level at 20 uM incubated for 8 hrs by western blot analysis relative to lamin B
# [10] = target: T3, IAP-Estrogen receptor (Homo sapiens); test: SNIPER activity at IAP/ERalpha in human MCF7 cells assessed as induction of ERalpha protein degradation by measuring ERalpha protein level at 10 uM incubated for 24 hrs by western blot analysis relative to lamin B
# [11] = target: T3, IAP-Estrogen receptor (Homo sapiens); test: SNIPER activity at IAP/ERalpha in human MCF7 cells assessed as induction of ERalpha protein degradation incubated for 8 to 24 hrs by western blot analysis; details: time hrs 8-24
# [12] = target: T3, IAP-Estrogen receptor (Homo sapiens); test: SNIPER activity at IAP/ERalpha in human MCF7 cells assessed as induction of ERalpha protein degradation by measuring ERalpha protein level at 20 uM incubated for 8 hrs in presence of ubiquitin activating inhibitor MLN7243 by western blot analysis relative to lamin B
# [13] = target: T1, Baculoviral IAP repeat-containing protein 2/E3 ubiquitin-protein ligase XIAP/Aryl hydrocarbon receptor; test: SNIPER activity at IAP/AhR in human MCF7 cells assessed as induction of AhR protein degradation by measuring AhR protein level at 10 uM incubated for 8 hrs by western blot analysis relative to lamin B; details: mcf7, 8 h
# [14] = target: T3, IAP-Estrogen receptor (Homo sapiens); test: SNIPER activity at IAP/ERalpha in human MCF7 cells assessed as induction of ERalpha protein degradation by measuring ERalpha protein level at 20 uM incubated for 8 hrs in presence of proteasome inhibitor, MG132 by western blot analysis relative to lamin B
# [15] = target: T2, IAP/Androgen receptor (Homo sapiens); test: SNIPER activity at IAP/AR in human MCF7 cells assessed as induction of AR protein degradation by measuring AR protein level at 5 uM incubated for 8 hrs by western blot analysis relative to lamin B
# [16] = target: T1, Baculoviral IAP repeat-containing protein 2/E3 ubiquitin-protein ligase XIAP/Aryl hydrocarbon receptor; test: SNIPER activity at IAP/AhR in human MCF7 cells assessed as induction of AhR protein degradation by measuring AhR protein level at 20 uM incubated for 8 hrs by western blot analysis relative to lamin B; details: mcf7, 8 h
# [17] = target: T3, IAP-Estrogen receptor (Homo sapiens); test: SNIPER activity at IAP/ERalpha in human MCF7 cells assessed as induction of ERalpha protein degradation by measuring ERalpha protein level at 10 uM incubated for 8 hrs by western blot analysis relative to lamin B
# [18] = target: T2, IAP/Androgen receptor (Homo sapiens); test: SNIPER activity at IAP/AR in human MCF7 cells assessed as induction of AR protein degradation by measuring AR protein level at 20 uM incubated for 8 hrs by western blot analysis relative to lamin B
# [19] = target: T2, IAP/Androgen receptor (Homo sapiens); test: SNIPER activity at IAP/AR in human MCF7 cells assessed as induction of AR protein degradation by measuring AR protein level at 20 uM incubated for 8 hrs in presence of ubiquitin activating inhibitor MLN7243 by western blot analysis relative to lamin B
# [20] = target: T2, IAP/Androgen receptor (Homo sapiens); test: SNIPER activity at IAP/AR in human MCF7 cells assessed as induction of AR protein degradation by measuring AR protein level at 5 uM incubated for 24 hrs by western blot analysis relative to lamin B
# [21] = target: T2, IAP/Androgen receptor (Homo sapiens); test: SNIPER activity at IAP/AR in human MCF7 cells assessed as induction of AR protein degradation incubated for 8 to 24 hrs by western blot analysis; details: time hrs 8-24
# [22] = target: T1, Baculoviral IAP repeat-containing protein 2/E3 ubiquitin-protein ligase XIAP/Aryl hydrocarbon receptor; test: SNIPER activity at IAP/AhR in human MCF7 cells assessed as induction of AhR protein degradation by measuring AhR protein level at 10 uM incubated for 24 hrs by western blot analysis relative to lamin B; details: mcf7, 24 h
# [23] = target: T1, Baculoviral IAP repeat-containing protein 2/E3 ubiquitin-protein ligase XIAP/Aryl hydrocarbon receptor; test: SNIPER activity at IAP/AhR in human MCF7 cells assessed as induction of AhR protein degradation by measuring AhR protein level at 20 uM incubated for 8 hrs in presence of ubiquitin activating inhibitor MLN7243 by western blot analysis relative to lamin B; details: mcf7, 8 h
# [24] = target: T1, Baculoviral IAP repeat-containing protein 2/E3 ubiquitin-protein ligase XIAP/Aryl hydrocarbon receptor; test: SNIPER activity at IAP/AhR in human MCF7 cells assessed as induction of AhR protein degradation by measuring AhR protein level at 20 uM incubated for 8 hrs in presence of proteasome inhibitor, MG132 by western blot analysis relative to lamin B; details: mcf7, 8 h
# [25] = target: T2, IAP/Androgen receptor (Homo sapiens); test: SNIPER activity at IAP/AR in human MCF7 cells assessed as induction of AR protein degradation by measuring AR protein level at 10 uM incubated for 24 hrs by western blot analysis relative to lamin B
# [26] = target: T3, IAP-Estrogen receptor (Homo sapiens); test: SNIPER activity at IAP/ERalpha in human MCF7 cells assessed as induction of ERalpha protein degradation by measuring ERalpha protein level at 5 uM incubated for 8 hrs by western blot analysis relative to lamin B
# [27] = target: T3, IAP-Estrogen receptor (Homo sapiens); test: SNIPER activity at IAP/ERalpha in cIAP1 siRNA-transfected human MCF7 cells assessed as induction of ERalpha protein degradation by measuring ERalpha protein level at 20 uM incubated for 8 hrs by western blot analysis relative to lamin B
# [28] = target: T3, IAP-Estrogen receptor (Homo sapiens); test: SNIPER activity at IAP/ERalpha in XIAP/cIAP1 siRNA-transfected human MCF7 cells assessed as induction of ERalpha protein degradation by measuring ERalpha protein level at 20 uM incubated for 8 hrs by western blot analysis relative to lamin B
# [29] = target: T2, IAP/Androgen receptor (Homo sapiens); test: SNIPER activity at IAP/AR in XIAP/cIAP1 siRNA-transfected human MCF7 cells assessed as induction of AR protein degradation by measuring AR protein level at 20 uM incubated for 8 hrs by western blot analysis relative to lamin B
# [30] = target: T3, IAP-Estrogen receptor (Homo sapiens); test: SNIPER activity at IAP/ERalpha in XIAP siRNA-transfected human MCF7 cells assessed as induction of ERalpha protein degradation by measuring ERalpha protein level at 20 uM incubated for 8 hrs by western blot analysis relative to lamin B
# [31] = target: T2, IAP/Androgen receptor (Homo sapiens); test: SNIPER activity at IAP/AR in cIAP1 siRNA-transfected human MCF7 cells assessed as induction of AR protein degradation by measuring AR protein level at 20 uM incubated for 8 hrs by western blot analysis relative to lamin B
# [32] = target: T2, IAP/Androgen receptor (Homo sapiens); test: SNIPER activity at IAP/AR in XIAP siRNA-transfected human MCF7 cells assessed as induction of AR protein degradation by measuring AR protein level at 20 uM incubated for 8 hrs by western blot analysis relative to lamin B
# T3 sequence (P03372 whole entry, looked up): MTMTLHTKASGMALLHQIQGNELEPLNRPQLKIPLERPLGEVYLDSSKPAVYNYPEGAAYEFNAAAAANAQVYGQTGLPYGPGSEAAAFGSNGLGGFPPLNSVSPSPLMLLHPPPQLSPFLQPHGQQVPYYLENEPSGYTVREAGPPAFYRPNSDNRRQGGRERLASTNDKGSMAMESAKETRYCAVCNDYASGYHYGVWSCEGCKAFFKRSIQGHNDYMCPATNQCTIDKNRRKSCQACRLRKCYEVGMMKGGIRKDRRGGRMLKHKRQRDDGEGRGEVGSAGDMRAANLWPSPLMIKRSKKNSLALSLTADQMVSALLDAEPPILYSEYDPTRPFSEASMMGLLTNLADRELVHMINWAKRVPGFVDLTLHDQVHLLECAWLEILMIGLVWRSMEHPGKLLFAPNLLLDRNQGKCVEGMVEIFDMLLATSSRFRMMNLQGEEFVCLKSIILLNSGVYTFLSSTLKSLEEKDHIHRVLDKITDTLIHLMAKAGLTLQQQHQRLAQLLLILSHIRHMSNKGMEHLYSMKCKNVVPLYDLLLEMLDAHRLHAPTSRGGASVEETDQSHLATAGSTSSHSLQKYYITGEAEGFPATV
# T3 sequence (P98170 whole entry, looked up): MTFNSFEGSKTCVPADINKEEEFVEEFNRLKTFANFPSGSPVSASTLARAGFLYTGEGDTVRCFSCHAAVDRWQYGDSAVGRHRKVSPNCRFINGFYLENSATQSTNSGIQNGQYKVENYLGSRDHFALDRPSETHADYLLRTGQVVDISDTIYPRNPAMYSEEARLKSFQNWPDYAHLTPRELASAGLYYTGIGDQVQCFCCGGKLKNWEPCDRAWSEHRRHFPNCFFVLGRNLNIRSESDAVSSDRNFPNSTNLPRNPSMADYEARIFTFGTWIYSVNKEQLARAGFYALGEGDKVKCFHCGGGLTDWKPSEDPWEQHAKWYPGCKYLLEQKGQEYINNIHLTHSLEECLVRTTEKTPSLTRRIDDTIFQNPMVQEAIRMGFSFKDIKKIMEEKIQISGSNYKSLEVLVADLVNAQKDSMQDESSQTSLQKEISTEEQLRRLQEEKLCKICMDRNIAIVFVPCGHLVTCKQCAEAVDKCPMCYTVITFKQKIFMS
# T3 sequence (Q13490 whole entry, looked up): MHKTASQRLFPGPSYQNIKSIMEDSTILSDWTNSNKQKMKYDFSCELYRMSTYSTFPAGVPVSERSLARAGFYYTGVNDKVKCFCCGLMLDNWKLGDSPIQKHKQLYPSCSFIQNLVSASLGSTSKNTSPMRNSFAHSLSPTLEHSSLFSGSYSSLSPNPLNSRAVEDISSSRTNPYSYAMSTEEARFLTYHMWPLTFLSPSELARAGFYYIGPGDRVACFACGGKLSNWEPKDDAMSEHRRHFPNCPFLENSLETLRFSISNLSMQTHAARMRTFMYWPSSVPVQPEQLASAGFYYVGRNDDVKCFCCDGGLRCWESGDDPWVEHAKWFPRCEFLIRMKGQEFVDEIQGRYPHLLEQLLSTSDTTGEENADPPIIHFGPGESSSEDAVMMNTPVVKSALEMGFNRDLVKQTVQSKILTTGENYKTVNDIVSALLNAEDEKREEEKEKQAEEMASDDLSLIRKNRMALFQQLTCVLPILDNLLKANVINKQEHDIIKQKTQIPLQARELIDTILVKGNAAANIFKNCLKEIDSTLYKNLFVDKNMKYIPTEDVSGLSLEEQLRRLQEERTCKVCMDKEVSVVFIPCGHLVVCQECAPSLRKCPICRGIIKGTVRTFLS
# T1 sequence (P35869 whole entry): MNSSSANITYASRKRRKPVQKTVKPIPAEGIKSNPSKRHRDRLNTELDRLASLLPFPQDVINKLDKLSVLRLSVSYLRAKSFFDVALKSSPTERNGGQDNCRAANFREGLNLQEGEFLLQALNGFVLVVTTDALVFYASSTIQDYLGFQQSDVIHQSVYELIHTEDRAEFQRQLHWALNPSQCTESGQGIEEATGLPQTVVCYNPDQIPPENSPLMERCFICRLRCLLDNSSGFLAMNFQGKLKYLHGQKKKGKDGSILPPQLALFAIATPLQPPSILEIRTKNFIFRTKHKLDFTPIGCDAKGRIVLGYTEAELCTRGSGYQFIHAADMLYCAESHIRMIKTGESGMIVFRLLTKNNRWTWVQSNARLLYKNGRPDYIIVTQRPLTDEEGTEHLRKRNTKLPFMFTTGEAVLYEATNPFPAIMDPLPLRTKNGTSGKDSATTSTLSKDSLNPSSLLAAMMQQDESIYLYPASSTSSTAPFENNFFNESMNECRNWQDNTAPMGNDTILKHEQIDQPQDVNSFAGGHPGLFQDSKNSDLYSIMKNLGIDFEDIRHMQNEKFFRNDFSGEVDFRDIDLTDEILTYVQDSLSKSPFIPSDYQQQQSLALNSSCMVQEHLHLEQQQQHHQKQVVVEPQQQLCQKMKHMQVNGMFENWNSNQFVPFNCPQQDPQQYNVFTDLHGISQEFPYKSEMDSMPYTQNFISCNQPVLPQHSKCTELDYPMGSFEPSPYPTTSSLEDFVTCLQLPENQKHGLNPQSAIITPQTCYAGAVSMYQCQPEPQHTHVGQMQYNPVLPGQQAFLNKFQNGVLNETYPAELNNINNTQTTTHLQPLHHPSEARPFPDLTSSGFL
# T1 sequence (P98170 whole entry): as the sequence (P98170 whole entry, looked up) above
# T1 sequence (Q13490 whole entry): as the sequence (Q13490 whole entry, looked up) above
Structure (SMILES),Activity [1] [%],Activity [2] [%],Activity [3] [%],Activity [4] [%],Activity [5] [%],Activity [6] [%],Activity [7] [%],Activity [8] [%],Activity [9] [%],Activity [10] [%],Activity [11],Activity [12] [%],Activity [13] [%],Activity [14] [%],Activity [15] [%],Activity [16] [%],Activity [17] [%],Activity [18] [%],Activity [19] [%],Activity [20] [%],further results
CC[C@H](C)[C@@H]1NC(=O)[C@H](NC(=O)[C@@H](N)CCCCNC(=O)COCCOCCNC(=O)COCCOCCNC(=O)[C@@H](NC(=O)[C@@H]2CCCN2C(=O)[C@@H](NC(=O)[C@H](C)NC)C2CCCCC2)C(c2ccccc2)c2ccccc2)CSSC[C@@H](C(=O)N[C@@H](CCCNC(=N)N)C(=O)N[C@@H](CC(C)(C)C)C(=O)N[C@@H](CC(C)C)C(=O)N[C@@H](CCC(N)=O)C(=O)NCC(=O)NCC(=O)NCC(=O)N[C@@H](CCCNC(=N)N)C(=O)N[C@@H](CCCNC(=N)N)C(=O)N[C@@H](CCCNC(=N)N)C(=O)N[C@@H](CCCNC(=N)N)C(=O)N[C@@H](CCCNC(=N)N)C(=O)N[C@@H](CCCNC(=N)N)C(=O)N[C@@H](CCCNC(=N)N)C(N)=O)NC(=O)[C@H](CC(C)C)NC1=O,119,90,34,79,56,97,125,57,48,75,Dose-dependent effect,119,129,88,80,82,66,35,110,97,Activity [21]: Dose-dependent effect; Activity [22]: 189%; Activity [23]: 107%; Activity [24]: 91%; Activity [25]: 152%; Activity [26]: 84%
CC[C@H](C)[C@@H]1NC(=O)[C@H](NC(=O)[C@@H](N)CCCCNC(=O)COCCOCCNC(=O)COCCOCCOc2cccc(C(=O)c3csc([C@@H]4CCCN4C(=O)[C@@H](NC(=O)[C@H](C)NC)C4CCCCC4)n3)c2)CSSC[C@@H](C(=O)N[C@@H](CCCNC(=N)N)C(=O)N[C@@H](CC(C)(C)C)C(=O)N[C@@H](CC(C)C)C(=O)N[C@@H](CCC(N)=O)C(=O)NCC(=O)NCC(=O)NCC(=O)N[C@@H](CCCNC(=N)N)C(=O)N[C@@H](CCCNC(=N)N)C(=O)N[C@@H](CCCNC(=N)N)C(=O)N[C@@H](CCCNC(=N)N)C(=O)N[C@@H](CCCNC(=N)N)C(=O)N[C@@H](CCCNC(=N)N)C(=O)N[C@@H](CCCNC(=N)N)C(N)=O)NC(=O)[C@H](CC(C)C)NC1=O,111,95,35,81,63,100,103,59,46,76,Dose-dependent effect,122,128,94,81,80,68,36,117,99,Activity [27]: 50%; Activity [28]: 55%; Activity [29]: 59%; Activity [30]: 62%; Activity [21]: Dose-dependent effect; Activity [22]: 165%; Activity [23]: 110%; Activity [31]: 78%; Activity [24]: 90%; Activity [25]: 137%; Activity [26]: 84%; Activity [32]: 57%
